# Test results reported in PMC7596534, “Bacterial inducible expression of plant cell wall-binding protein YesO through conflict between Glycine max and saprophytic Bacillus subtilis” (Scientific Reports, 2020).
# Molecular target: T1, YesO (Bacillus subtilis, UniProt O31518)
# T1 construct: primer-encoded N-terminus MTLRIAWWG, native stop codon, no tag apparent
# Assay: X-ray crystallography of the complex, […] Å
# Format: binding
# Conditions: crystallised with 1 mM oligo-RG-I (mostly disaccharide, trisaccharide seen in density); Tris-HCl pH 8.5, 20 C; cleft between N- and C-domains
# T1 sequence (O31518 34-427): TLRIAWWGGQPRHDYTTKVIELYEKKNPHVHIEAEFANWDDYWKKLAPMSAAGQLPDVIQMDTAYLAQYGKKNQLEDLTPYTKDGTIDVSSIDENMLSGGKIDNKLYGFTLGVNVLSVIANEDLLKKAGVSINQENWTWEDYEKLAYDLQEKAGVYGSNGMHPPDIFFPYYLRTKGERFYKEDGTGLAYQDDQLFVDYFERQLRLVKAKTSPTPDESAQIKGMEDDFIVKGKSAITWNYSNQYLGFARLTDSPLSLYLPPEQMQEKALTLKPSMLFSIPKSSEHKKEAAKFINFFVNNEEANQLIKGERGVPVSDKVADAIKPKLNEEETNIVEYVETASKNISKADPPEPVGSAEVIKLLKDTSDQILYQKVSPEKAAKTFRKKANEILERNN
compound,measurement,value
C[C@@H]1OC(O)[C@H](O[C@H]2OC(C(=O)O)=C[C@H](O)[C@H]2O)[C@H](O)[C@H]1O[C@@H]1O[C@H](CO)[C@H](O)[C@H](O)[C@H]1O (stereo partly shown) [ΔGalUA-Rha-Gal],"X-ray crystallography of the complex, 1.58 Å","X-ray crystallography of YesO/oligo-RG-I indicated an interaction between YesO and the trisaccharide, ΔGalUA-Rha-Gal"
